In one test the test system is Male Balb/c mice. The test can be described thus: Intraperitoneal Glucose Tolerance Test (IPGTT). The class given is in vivo, mouse. The following applies: for glucose levels: positive control 10 mg/kg. As for the experimental part: To examine the ability of exemplified compounds to activate GPR40 in-vivo resulting in anti-diabetic efficacy, i.e. an increase in insulin and reduction in glucose levels, a 4-day intraperitoneal glucose tolerance test (ipGTT) study is completed with each compound.
Male Balb/c (Albino mice) mice (8-9 weeks of age) are single housed and fed with normal rodent chow diet and water ad libitum. Animals are weighed and randomized by body weight and daily body weights are recorded. Upon study initiation, animals are dosed once per day orally for three days using a formulation carrying methylcellulose and tween-80. On the night before the 4-day IPGTT study, animals are fasted overnight in clean cages. On the morning of the IPGTT (Day 4), animals are dosed orally with compound or vehicle alone 60 minutes prior to the IPGTT (glucose 2 g/kg, i.p.). Blood glucose levels are determined from tail bleeds taken at 0, 3, 7, 15, 30, and 60 min after glucose challenge. Plasma is isolated and used to estimate respective insulin levels. The blood glucose excursion profile from t=0 to t=60 min is used to integrate an area under the curve (AUC) for each treatment. Percent lowering in glucose is calculated from the AUC data of the compounds with respect to the AUC of vehicle group. The test compound is orally administered at 0.03, 0.1, 0.3, 1.0, or 3.0 mg/kg, and a positive control is administered at 10 mg/kg. […] The ED50 for the compound of Example 1 based on AUCs for glucose lowering is 0.09 mg/kg. […] The results of this assay support the compound's activation of GPR-40, with resulting in vivo anti-diabetic efficacy.

The target in the next test is T1, Gal4 PPARα (Homo sapiens, UniProt Q07869).
T1 construct: expressed in transfected cells; host or cells: CV1 (African green monkey kidney)
T1 sequence (Q07869 239-466 limits assumed): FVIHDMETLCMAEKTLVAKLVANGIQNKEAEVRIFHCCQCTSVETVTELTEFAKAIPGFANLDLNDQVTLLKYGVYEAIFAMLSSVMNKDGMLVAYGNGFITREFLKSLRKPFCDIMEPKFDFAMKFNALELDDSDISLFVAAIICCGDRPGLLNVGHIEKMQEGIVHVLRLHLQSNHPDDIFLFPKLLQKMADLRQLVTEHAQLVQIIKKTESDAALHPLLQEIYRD
The test can be described thus: Gal4 PPARα reporter functional assay (CTF). The class given is cell-based. The settings on record: examined up to 10 μM; CV1 cells; luciferase. An excerpt:
(§1) Gal4 PPARα, Gal4 PPARδ, and PPARγ reporter functional assays are also used to monitor the selectivity of exemplified compounds. CV1 cells, which are derived from the renal tissue of an African green monkey, are transfected with various receptor and reporter plasmids using Fugene. For the Gal4 PPARα and PPARδ assays, a reporter plasmid containing five tandem copies of the yeast transcription protein Gal4 response element, cloned upstream of a firefly luciferase gene driven by the major late promoter of adenovirus, is transfected together with a Simian Virus 40 (SV40) driven plasmid constitutively expressing a hybrid protein containing the Gal4 DNA binding domain (DBD), and either the PPARα or PPARδ ligand binding. For the PPARγ assay, plasmids encoding PPARγ and RXRα, both driven by a cytomegalovirus (CMV) promoter are transfected together with a plasmid containing luciferase reporter cDNA driven by the TK promoter and a receptor response element (2×PPRE). Cells are transfected in T225 cm^2 cell culture flasks in DMEM media with 5% charcoal-stripped FBS. […] After 24 hours incubation with compounds, cells are lysed and luciferase activity is determined as a measure of receptor activation by luminescence. […] The maximum percent stimulation is determined versus maximum stimulation obtained with 10 μM of an appropriate PPAR agonist reference compound. […]

A further test has as its target T2, Gal4 PPARδ (Homo sapiens, UniProt Q03181).
T2 construct: expressed in transfected cells; host or cells: CV1 (African green monkey kidney)
T2 sequence (Q03181 211-439 limits assumed): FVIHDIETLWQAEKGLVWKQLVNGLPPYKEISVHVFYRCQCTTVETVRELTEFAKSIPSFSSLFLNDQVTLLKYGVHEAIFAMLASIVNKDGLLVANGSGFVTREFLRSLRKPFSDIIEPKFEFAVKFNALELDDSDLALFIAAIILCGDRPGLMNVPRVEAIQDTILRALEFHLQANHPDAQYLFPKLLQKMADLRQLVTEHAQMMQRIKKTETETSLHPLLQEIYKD
The experiment in a line: Gal4 PPARδ reporter functional assay (CTF). The settings on record: examined up to 10 μM; CV1 cells; luciferase. The class given is cell-based.
Description: as §1

A word on the ED50: it is the dose at which the effect has come halfway, by size or by number of responders. For the compound `CC#C[C@@H](CC(=O)O)c1ccc(OCc2ccc(CN3CCC4(C=Cc5ccccc54)CC3)cc2)cc1` [Example 1, (3S)-3-(4-{[4-(1′H-Spiro[indene-1,4′-piperidin]-1′-ylmethyl)benzyl]oxy}phenyl)hex-4-ynoic acid], the insulin levels result in the test on Male Balb/c mice (3 minute time point, 1.0 and 3.0 mg/kg oral) is “significantly elevated”. In addition, the glucose levels result with Male Balb/c mice (3 minute time point, Example 1 0.03-3.0 mg/kg oral) is “No concentration of the compound of Example 1 or the positive control significantly lowered”; in the test with Male Balb/c mice (7 minute time point, Example 1 0.3, 1.0, and 3.0 mg/kg oral) it was “significantly lowered”; in the test with Male Balb/c mice (15 minute time point, Example 1 0.1, 0.3, 1.0, and 3.0 mg/kg oral), “significantly lowered”; in the test on Male Balb/c mice (30 minute time point, all doses of Example 1 (0.03-3.0 mg/kg oral)) it was “significantly lowered”; with Male Balb/c mice (60 minute time point, all doses of Example 1 (0.03-3.0 mg/kg oral)), “significantly lowered”. Further, the ED50 in the test with Male Balb/c mice (Mus musculus, oral, once per day, 4-day, glucose 2 g/kg i.p., AUC t=0 to 60 min, read-out: ED50 based on AUCs for glucose lowering) came out at 0.09 mg/kg. For the same compound, the functional activation entry on Gal4 PPARα and on Gal4 PPARδ was “No functional activation” in each case.

Source of the values: patent publication US8383642B2, “Spiropiperidine compounds” (Eli Lilly and Company, priority 2009, dated 2013).
